Data taken from ChEMBL document CHEMBL3882729, “Receptor-type kinase modulators and methods of use” (2009).

Legend:
Ephrin type-A receptor 2 = Ephrin type-A receptor 2 (Homo sapiens, UniProt P29317); assay: Inhibition of recombinant human N-terminal His6-tagged EphA2 (N598 to R890 residues) expressed in baculovirus using poly-EY as substrate after 180 mins by luciferase coupled chemiluminescence assay
[1] = molecular target: Vascular endothelial growth factor receptor 1 (Homo sapiens, UniProt P17948); assay: Inhibition of recombinant human N-terminal GST-tagged factor 10a cleavage site-fused Flt1 (K784 to I1338 residues) expressed in baculovirus infected insect Sf9 cells using poly-EY as substrate after 120 mins in presence of gamma33P-ATP by liquid scintillation spectrometry
[2] = molecular target: Vascular endothelial growth factor receptor 2 (Homo sapiens, UniProt P35968); assay: Inhibition of recombinant human N-terminal GST-fused KDR (D807 to V1356 residues) expressed in baculovirus infected […] insect Sf9 cells using poly-EY as substrate after 240 mins by luciferase coupled chemiluminescence assay
[3] = molecular target: Receptor tyrosine-protein kinase erbB-2 (Homo sapiens, UniProt P04626); assay: Inhibition of recombinant human N-terminal GST His6-tagged thrombin cleavage site-fused ErbB2 kinase domain (Q679 to V1255 residues) expressed in baculovirus infected insect Sf9 cells using biotinylated poly-EY as substrate after 60 mins by alphascreen assay
Ephrin type-B receptor 4 = molecular target: T1, Ephrin type-B receptor 4 (Homo sapiens, UniProt P54760); assay: Inhibition of recombinant human N-terminal His6-tagged EphB4 kinase domain (E605 to E890 residues) expressed in baculovirus using poly-AEKY as substrate after 150 mins in presence of gamma33P-ATP by liquid scintillation spectrometry
T1 sequence (P54760 whole entry): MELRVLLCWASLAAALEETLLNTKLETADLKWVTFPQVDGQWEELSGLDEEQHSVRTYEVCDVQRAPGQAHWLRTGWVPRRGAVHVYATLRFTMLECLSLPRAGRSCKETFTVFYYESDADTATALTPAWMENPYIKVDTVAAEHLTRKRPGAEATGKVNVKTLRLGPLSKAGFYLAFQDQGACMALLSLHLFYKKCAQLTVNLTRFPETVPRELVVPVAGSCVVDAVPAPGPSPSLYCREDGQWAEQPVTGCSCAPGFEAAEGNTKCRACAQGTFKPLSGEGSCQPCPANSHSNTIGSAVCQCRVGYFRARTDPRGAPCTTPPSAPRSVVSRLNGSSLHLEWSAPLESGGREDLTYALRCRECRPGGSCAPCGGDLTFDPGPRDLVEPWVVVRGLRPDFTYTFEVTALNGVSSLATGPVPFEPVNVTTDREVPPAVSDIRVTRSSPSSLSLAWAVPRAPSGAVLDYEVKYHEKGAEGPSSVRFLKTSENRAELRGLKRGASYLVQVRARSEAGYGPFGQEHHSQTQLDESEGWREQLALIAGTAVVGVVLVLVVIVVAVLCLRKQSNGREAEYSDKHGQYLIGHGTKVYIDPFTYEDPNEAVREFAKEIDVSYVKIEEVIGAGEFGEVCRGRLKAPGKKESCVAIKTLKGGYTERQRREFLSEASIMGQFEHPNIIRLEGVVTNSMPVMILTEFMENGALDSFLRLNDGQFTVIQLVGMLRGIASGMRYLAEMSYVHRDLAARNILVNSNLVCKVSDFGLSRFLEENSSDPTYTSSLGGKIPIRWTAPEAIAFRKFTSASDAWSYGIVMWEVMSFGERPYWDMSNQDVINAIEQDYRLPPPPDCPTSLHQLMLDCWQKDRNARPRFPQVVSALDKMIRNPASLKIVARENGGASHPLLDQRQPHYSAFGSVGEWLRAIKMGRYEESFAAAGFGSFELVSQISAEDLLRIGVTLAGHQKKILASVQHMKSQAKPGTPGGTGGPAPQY

Vascular endothelial growth factor receptor 2, sequence (P35968 whole entry, the tested form may be a part): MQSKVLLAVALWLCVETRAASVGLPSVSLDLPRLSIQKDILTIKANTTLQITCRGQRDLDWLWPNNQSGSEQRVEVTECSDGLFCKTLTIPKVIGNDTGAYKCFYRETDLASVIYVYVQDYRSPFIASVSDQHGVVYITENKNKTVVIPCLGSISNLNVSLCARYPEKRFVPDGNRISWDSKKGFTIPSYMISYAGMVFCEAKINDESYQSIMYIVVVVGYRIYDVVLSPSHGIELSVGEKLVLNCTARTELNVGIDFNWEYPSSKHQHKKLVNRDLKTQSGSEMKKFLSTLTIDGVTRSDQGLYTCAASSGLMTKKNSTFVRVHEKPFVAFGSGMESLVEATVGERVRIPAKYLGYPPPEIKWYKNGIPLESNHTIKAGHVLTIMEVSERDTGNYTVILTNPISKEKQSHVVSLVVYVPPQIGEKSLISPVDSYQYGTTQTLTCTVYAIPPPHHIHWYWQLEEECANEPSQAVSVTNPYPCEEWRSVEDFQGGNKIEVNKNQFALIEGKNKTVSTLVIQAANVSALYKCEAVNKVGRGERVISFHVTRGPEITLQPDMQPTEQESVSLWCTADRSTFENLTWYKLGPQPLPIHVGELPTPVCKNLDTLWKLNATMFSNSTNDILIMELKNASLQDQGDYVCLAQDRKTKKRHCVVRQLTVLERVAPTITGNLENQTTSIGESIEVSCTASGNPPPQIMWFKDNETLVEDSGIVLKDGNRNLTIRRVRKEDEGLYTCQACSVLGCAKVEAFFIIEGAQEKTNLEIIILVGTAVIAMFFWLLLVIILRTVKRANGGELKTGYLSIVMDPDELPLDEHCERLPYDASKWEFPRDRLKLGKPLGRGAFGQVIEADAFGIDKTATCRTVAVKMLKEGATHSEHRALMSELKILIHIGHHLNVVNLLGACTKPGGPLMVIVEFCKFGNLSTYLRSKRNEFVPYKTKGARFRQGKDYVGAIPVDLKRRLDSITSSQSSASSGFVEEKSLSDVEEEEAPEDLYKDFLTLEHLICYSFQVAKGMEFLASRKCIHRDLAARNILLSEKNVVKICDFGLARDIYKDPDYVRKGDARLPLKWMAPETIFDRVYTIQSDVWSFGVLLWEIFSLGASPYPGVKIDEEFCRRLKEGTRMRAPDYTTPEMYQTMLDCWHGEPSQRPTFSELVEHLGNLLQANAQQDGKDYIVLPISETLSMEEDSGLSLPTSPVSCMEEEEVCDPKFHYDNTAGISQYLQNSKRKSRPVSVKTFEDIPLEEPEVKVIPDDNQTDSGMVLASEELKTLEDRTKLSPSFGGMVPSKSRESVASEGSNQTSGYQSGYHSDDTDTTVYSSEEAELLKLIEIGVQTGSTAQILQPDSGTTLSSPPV
Ephrin type-A receptor 2, sequence (P29317 whole entry, the tested form may be a part): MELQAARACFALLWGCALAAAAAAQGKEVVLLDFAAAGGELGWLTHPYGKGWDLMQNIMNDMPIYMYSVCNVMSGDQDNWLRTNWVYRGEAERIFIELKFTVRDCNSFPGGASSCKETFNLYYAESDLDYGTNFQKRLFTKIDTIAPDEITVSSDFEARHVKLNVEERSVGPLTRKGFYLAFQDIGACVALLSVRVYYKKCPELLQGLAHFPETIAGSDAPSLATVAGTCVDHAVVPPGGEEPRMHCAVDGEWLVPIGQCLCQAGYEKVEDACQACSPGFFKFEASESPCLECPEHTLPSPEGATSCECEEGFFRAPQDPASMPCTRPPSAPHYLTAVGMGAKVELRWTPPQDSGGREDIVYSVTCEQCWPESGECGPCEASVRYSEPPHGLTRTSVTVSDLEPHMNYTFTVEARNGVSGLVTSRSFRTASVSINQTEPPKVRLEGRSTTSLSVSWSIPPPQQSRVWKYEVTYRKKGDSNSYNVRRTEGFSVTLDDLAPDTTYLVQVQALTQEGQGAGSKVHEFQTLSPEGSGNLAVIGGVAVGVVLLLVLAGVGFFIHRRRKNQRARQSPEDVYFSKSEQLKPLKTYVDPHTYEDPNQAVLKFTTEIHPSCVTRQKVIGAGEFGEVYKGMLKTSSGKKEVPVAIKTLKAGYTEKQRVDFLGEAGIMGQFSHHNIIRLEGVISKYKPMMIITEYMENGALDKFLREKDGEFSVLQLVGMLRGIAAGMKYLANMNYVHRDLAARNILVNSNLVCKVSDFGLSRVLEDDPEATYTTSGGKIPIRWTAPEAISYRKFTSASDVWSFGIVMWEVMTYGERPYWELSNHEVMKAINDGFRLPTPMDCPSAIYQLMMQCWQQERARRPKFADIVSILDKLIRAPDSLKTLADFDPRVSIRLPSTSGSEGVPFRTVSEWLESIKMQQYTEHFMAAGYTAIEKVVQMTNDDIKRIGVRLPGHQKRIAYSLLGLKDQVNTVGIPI
Receptor tyrosine-protein kinase erbB-2, sequence (P04626 whole entry, the tested form may be a part): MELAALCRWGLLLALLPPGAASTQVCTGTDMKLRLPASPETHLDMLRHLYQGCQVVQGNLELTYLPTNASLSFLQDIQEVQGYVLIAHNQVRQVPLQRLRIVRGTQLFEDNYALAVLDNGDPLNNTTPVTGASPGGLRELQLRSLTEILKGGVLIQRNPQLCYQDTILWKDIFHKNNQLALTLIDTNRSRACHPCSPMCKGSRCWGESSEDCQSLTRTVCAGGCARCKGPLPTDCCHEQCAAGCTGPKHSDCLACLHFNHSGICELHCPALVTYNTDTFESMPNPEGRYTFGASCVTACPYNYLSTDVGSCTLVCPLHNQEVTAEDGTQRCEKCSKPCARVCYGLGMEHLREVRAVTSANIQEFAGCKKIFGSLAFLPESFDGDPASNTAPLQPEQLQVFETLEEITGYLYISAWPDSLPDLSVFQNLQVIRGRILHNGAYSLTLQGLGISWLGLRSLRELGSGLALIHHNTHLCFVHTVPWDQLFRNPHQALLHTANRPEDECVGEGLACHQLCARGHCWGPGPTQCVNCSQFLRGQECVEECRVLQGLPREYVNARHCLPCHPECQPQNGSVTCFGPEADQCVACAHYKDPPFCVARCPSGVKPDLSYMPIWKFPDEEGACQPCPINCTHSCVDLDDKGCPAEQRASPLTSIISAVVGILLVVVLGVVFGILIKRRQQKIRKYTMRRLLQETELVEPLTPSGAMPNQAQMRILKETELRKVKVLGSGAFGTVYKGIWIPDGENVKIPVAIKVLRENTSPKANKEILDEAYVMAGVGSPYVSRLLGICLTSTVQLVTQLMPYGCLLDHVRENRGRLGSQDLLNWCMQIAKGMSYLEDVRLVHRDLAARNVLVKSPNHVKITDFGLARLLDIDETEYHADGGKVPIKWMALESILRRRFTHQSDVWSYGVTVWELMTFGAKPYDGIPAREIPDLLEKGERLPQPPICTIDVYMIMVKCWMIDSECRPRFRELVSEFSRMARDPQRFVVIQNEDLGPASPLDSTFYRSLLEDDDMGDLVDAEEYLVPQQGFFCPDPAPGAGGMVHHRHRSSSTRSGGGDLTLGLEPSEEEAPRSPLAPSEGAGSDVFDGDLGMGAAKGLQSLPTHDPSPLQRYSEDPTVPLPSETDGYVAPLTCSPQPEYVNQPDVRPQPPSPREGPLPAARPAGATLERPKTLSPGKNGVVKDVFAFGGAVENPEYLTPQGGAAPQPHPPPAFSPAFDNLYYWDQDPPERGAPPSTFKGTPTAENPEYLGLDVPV
Vascular endothelial growth factor receptor 1, sequence (P17948 whole entry, the tested form may be a part): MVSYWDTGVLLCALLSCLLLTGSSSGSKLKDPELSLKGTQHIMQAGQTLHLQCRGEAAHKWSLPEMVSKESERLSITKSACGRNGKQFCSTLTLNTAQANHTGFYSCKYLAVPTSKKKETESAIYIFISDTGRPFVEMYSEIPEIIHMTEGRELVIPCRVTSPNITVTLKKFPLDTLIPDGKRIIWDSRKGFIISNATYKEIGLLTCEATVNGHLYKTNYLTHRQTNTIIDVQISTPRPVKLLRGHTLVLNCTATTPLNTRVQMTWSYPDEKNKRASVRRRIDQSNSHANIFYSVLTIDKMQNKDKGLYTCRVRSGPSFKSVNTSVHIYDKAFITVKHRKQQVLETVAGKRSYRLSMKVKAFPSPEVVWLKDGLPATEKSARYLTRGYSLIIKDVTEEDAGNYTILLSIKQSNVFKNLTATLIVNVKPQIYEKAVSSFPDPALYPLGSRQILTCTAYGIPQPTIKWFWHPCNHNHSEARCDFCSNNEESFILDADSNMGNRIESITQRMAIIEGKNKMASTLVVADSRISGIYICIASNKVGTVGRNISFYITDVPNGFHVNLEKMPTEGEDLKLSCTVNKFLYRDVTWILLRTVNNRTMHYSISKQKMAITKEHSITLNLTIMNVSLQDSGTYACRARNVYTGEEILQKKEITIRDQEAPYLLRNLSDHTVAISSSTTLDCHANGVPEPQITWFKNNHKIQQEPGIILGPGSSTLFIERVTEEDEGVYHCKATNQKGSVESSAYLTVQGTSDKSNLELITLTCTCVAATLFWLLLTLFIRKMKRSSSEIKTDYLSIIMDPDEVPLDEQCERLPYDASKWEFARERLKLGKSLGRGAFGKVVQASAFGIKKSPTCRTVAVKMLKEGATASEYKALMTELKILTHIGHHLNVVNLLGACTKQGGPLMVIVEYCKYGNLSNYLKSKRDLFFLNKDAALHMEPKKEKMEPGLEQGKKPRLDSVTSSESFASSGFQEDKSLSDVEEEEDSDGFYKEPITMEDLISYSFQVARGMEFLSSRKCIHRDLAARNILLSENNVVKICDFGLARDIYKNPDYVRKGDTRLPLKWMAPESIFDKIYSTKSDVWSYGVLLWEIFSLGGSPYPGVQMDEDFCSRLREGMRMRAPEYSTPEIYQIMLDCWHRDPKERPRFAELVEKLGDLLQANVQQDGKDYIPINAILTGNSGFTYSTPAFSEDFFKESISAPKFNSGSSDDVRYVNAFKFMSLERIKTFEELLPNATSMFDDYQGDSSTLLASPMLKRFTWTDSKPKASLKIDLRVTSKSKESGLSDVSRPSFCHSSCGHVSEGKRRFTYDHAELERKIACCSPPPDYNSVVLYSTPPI

Structure (SMILES) | IC50 (Ephrin type-A receptor 2) [nM] | IC50 [1] [nM] | IC50 [2] [nM] | IC50 [3] [nM] | IC50 (Ephrin type-B receptor 4) [nM]
COc1cc2c(Nc3ccc(Cl)c(Cl)c3)ncnc2cc1OCC1CN2CSC[C@H]2CO1 (some centres undefined) | 50 to 1000 | 50 to 1000 | 50 to 1000 |  | 
COc1cc2c(Nc3ccc(Cl)c(Cl)c3F)ncnc2cc1OC[C@@H]1CN2CCC[C@@H]2C(=O)N1 | < 50 | 50 to 1000 | < 50 |  | 
COc1cc2c(Nc3ccc(Cl)c(Cl)c3)ncnc2cc1OCCC1CN(C(=O)OC(C)(C)C)C(C)(C)CO1 (centres undefined) | 1000 to 20000 |  | 1000 to 20000 | 1000 to 20000 | 1000 to 20000
COc1cc2c(Nc3ccc(Br)c(Cl)c3)ncnc2cc1O[C@@H]1CO[C@H]2[C@@H]1OC[C@@H]2O | 1000 to 20000 |  | 1000 to 20000 | 50 to 1000 | 50 to 1000
CN/C(=N\C#N)N1CCOC(COc2cc3ncnc(Nc4ccc(Cl)c(C)c4)c3cc2OC)C1 (centres undefined) | 50 to 1000 |  | 50 to 1000 | < 50 | < 50
COc1cc2c(Nc3ccc(Cl)c(Cl)c3)ncnc2cc1OCc1csc(C2CCCN(C)C2)n1 (centres undefined) | 50 to 1000 |  | 50 to 1000 | 50 to 1000 | 50 to 1000
CCNC(=NC#N)N1CCOC(COc2cc3ncnc(Nc4ccc(Cl)c(Cl)c4)c3cc2OC)C1 (centres undefined) | 50 to 1000 |  | 50 to 1000 | < 50 | < 50
COc1cc2c(Nc3ccc(Cl)c(Cl)c3)ncnc2cc1OCC1CN(S(=O)(=O)CCCCl)CCO1 (centres undefined) | 50 to 1000 |  | 50 to 1000 | 50 to 1000 | < 50
COc1cc2c(Nc3cccc(Cl)c3F)ncnc2cc1OCC1CN(/C(N)=N/C#N)CCCO1 (centres undefined) | 50 to 1000 |  | 50 to 1000 | < 50 | < 50
COc1cc2c(Nc3ccc(Br)c(Cl)c3)ncnc2cc1O[C@@H]1CO[C@H]2[C@@H]1OC[C@@H]2NS(C)(=O)=O | 1000 to 20000 |  | 1000 to 20000 | 50 to 1000 | 50 to 1000
CC(C)Oc1cc2c(Nc3ccc(Cl)c(Cl)c3)ncnc2cc1OCC1CN(C)CCO1 (centres undefined) | < 50 |  | < 50 | < 50 | < 50
COc1cc2c(Nc3ccc(Br)c(Cl)c3)ncnc2cc1O[C@H]1CO[C@H]2[C@@H]1OC[C@@H]2NC(C)=O | 1000 to 20000 |  | 1000 to 20000 | 1000 to 20000 | 50 to 1000
COc1cc2c(Nc3ccc(Br)c(Cl)c3)ncnc2cc1O[C@@H]1CO[C@H]2[C@@H]1OC[C@@H]2OS(C)(=O)=O | 1000 to 20000 |  | 1000 to 20000 | 1000 to 20000 | 1000 to 20000
COc1cc2c(Nc3ccc(Cl)c(Cl)c3)ncnc2cc1OCC1CN(CC(N)=O)CCO1 (centres undefined) | 50 to 1000 |  | 50 to 1000 | < 50 | < 50
COc1cc2c(Nc3ccc(Cl)c(Cl)c3)ncnc2cc1OCC1CN(/C(=N/C#N)N2CCCC2)CCO1 (centres undefined) | < 50 |  | 50 to 1000 | < 50 | < 50
COc1cc2c(Nc3ccc(Br)c(Cl)c3)ncnc2cc1O[C@H]1CO[C@H]2[C@@H]1OC[C@@H]2N1CCCCC1 | 1000 to 20000 |  | 1000 to 20000 | 1000 to 20000 | 50 to 1000
CCS(=O)(=O)N1CCOC(COc2cc3ncnc(Nc4ccc(Cl)c(Cl)c4)c3cc2OC)C1 (centres undefined) | < 50 |  | 50 to 1000 | < 50 | < 50
CN[C@H]1CO[C@H]2[C@@H]1OC[C@@H]2Oc1cc2ncnc(Nc3ccc(Br)c(Cl)c3)c2cc1OC | 1000 to 20000 |  | 1000 to 20000 | 1000 to 20000 | 50 to 1000
COc1cc2c(Nc3ccc(Cl)c(Cl)c3)ncnc2cc1OCC1CN(C(=O)c2c(C)noc2C)CCO1 (centres undefined) | 50 to 1000 |  | 50 to 1000 | < 50 | < 50
COc1cc2c(Nc3ccc(Br)c(Cl)c3)ncnc2cc1O[C@H]1CO[C@H]2[C@@H]1OC[C@@H]2N1CCCC1 | 1000 to 20000 |  | 1000 to 20000 | 1000 to 20000 | 50 to 1000

The remaining lines, values ahead:

IC50 (Ephrin type-A receptor 2) [nM] | IC50 [1] [nM] | IC50 [2] [nM] | IC50 [3] [nM] | IC50 (Ephrin type-B receptor 4) [nM] | Structure (SMILES)
< 50 |  | < 50 | 50 to 1000 | < 50 | COc1cc2c(Nc3ccc(Cl)c(Cl)c3Cl)ncnc2cc1OCC1CN(C)CCO1 (centres undefined)
< 50 |  | < 50 | < 50 | < 50 | COc1cc2c(Nc3ccc(Cl)c(Cl)c3F)ncnc2cc1OCC1CN(C)C(C)(C)CO1 (centres undefined)
50 to 1000 |  | 50 to 1000 | 50 to 1000 | 50 to 1000 | COc1cc2c(Nc3ccc(Cl)c(Cl)c3)ncnc2cc1OCCC1CNC(C)(C)CO1 (centres undefined)
< 50 |  | < 50 | 50 to 1000 | < 50 | COc1cc2c(Nc3ccc(Br)c(Cl)c3)ncnc2cc1OCC1CN(C)CCO1 (centres undefined)
< 50 |  | < 50 | < 50 | < 50 | COc1cc2c(Nc3ccc(Cl)c(Cl)c3F)ncnc2cc1OCC1CN(C)CCO1 (centres undefined)
50 to 1000 |  | 50 to 1000 | 50 to 1000 | < 50 | COc1cc2c(Nc3cc(Cl)c(Cl)cc3F)ncnc2cc1OCC1CN(C)CCO1 (centres undefined)
< 50 |  | 50 to 1000 | 50 to 1000 | < 50 | COc1cc2c(Nc3ccc(F)c(Cl)c3F)ncnc2cc1OCC1CN(C)C(C)(C)CO1 (centres undefined)
< 50 |  | < 50 | < 50 | < 50 | COc1cc2c(Nc3ccc(F)c(Cl)c3F)ncnc2cc1OCC1CN(C)CCO1 (centres undefined)
50 to 1000 |  | 50 to 1000 | 1000 to 20000 | < 50 | COc1cc2c(Nc3ccc(Cl)c(Cl)c3C)ncnc2cc1OCC1CN(C)CCO1 (centres undefined)
50 to 1000 |  | < 50 | < 50 | < 50 | COc1cc2c(Nc3ccc(Cl)c(Cl)c3)ncnc2cc1OCC1CN(C)C(C)(C)CO1 (centres undefined)
50 to 1000 |  | 50 to 1000 | 50 to 1000 | 50 to 1000 | COc1cc2c(Nc3ccc(Br)c(C)c3)ncnc2cc1OCC1CN(C)CCO1 (centres undefined)
50 to 1000 |  | < 50 | 50 to 1000 | 50 to 1000 | COc1cc2c(Nc3cc(F)c(Br)c(F)c3)ncnc2cc1OCC1CN(C)CCO1 (centres undefined)
< 50 |  | < 50 | 50 to 1000 | < 50 | COc1cc2c(Nc3cc(Cl)c(Br)cc3F)ncnc2cc1OCC1CN(C)C(C)(C)CO1 (centres undefined)
50 to 1000 |  | 50 to 1000 | 50 to 1000 | 50 to 1000 | COc1cc2c(Nc3ccc(Br)c(Cl)c3F)ncnc2cc1OC[C@@H]1CN(C)CC(=O)N1
50 to 1000 |  | < 50 | 50 to 1000 | < 50 | COc1cc2c(Nc3ccc(C)c(Br)c3)ncnc2cc1OCC1CN(C)CCO1 (centres undefined)
50 to 1000 |  | 50 to 1000 | 50 to 1000 | < 50 | COc1cc2c(Nc3ccc(Cl)c(Cl)c3)ncnc2cc1OCC1CN(C)C(C)(C)C(=O)O1 (centres undefined)
50 to 1000 |  | 50 to 1000 | 50 to 1000 | < 50 | COc1cc2c(Nc3cc(Cl)c(Cl)c(Cl)c3)ncnc2cc1OCC1CN(C)CCO1 (centres undefined)
50 to 1000 |  | < 50 | 1000 to 20000 | 50 to 1000 | COc1cc2c(Nc3ccc(C)c(Cl)c3Cl)ncnc2cc1OCC1CN(C)CCO1 (centres undefined)
50 to 1000 |  | 50 to 1000 | 50 to 1000 | 50 to 1000 | COc1cc2c(Nc3ccc(Cl)c(Cl)c3F)ncnc2cc1OC[C@@H]1CN(C)CC(=O)N1
